In ChEMBL document CHEMBL4387743, “Design, synthesis and structure activity relationships of indazole and indole derivatives as potent glucagon receptor antagonists” (Bioorg Med Chem Lett, 2019):
One block for each molecule: values may come before it.

Tests used:
Glucagon receptor = Glucagon receptor (Homo sapiens, UniProt P47871); assay: Antagonist activity at full length human recombinant GCGR transfected in HEK293 cells assessed as inhibition of glucagon-stimulated cAMP by LANCE assay; format: functional, cell-based
Glucagon receptor, sequence (P47871 whole entry): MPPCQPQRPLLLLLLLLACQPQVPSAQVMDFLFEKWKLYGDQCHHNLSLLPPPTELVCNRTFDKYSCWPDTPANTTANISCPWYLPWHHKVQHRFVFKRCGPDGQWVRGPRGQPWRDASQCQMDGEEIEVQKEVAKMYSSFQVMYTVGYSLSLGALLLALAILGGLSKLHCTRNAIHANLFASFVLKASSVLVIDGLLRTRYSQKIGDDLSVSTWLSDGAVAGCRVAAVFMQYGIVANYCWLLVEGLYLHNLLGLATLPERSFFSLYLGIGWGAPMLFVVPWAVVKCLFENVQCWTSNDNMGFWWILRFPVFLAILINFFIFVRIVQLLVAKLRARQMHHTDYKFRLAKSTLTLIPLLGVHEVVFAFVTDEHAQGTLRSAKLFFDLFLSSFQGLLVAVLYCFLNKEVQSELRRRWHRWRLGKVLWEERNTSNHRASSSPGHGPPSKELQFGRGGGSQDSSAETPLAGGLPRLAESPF

[1] = Cmax in C57 black mouse at 20 mg/kg, po; format: ADME, organism-based; design: dose 20 mg/kg, route oral; settings: in vivo
[2] = Oral bioavailability in C57 black mouse at 20 mg/kg; format: ADME, organism-based; settings: in vivo
[3] = Elimination half life in C57 black mouse at 5 mg/kg, iv; format: ADME, organism-based; settings: in vivo, read-out: beta t1/2 (converted)
[4] = Elimination half life in C57 black mouse at 20 mg/kg, po; format: ADME, organism-based; settings: in vivo, read-out: beta t1/2 (converted)
[5] = AUClast in C57 black mouse at 20 mg/kg, po; format: ADME, organism-based; design: dose 20 mg/kg, time 0 - last, route oral; settings: in vivo
[6] = Clearance in C57 black mouse at 5 mg/kg, iv; format: ADME, organism-based; settings: in vivo
[7] = Volume of distribution at steady state in C57 black mouse at 5 mg/kg, iv; format: ADME, organism-based; settings: in vivo, read-out: Vdss
[8] = Elimination half life in Sprague Dawley rat at 2 mg/kg, iv; format: ADME, organism-based; settings: in vivo, read-out: beta t1/2 (converted)
[9] = AUClast in Sprague Dawley rat at 10 mg/kg, po; format: ADME, organism-based; design: dose 10 mg/kg, route oral, time 0 - last; settings: in vivo
[10] = Oral bioavailability in Sprague Dawley rat at 10 mg/kg; format: ADME, organism-based; settings: in vivo
[11] = Elimination half life in Sprague Dawley rat at 10 mg/kg, po; format: ADME, organism-based; settings: in vivo, read-out: beta t1/2 (converted)
[12] = Cmax in Sprague Dawley rat at 10 mg/kg, po; format: ADME, organism-based; design: dose 10 mg/kg, route oral; settings: in vivo
[13] = Clearance in Sprague Dawley rat at 2 mg/kg, iv; format: ADME, organism-based; settings: in vivo
[14] = Volume of distribution at steady state in Sprague Dawley rat at 2 mg/kg, iv; format: ADME, organism-based; settings: in vivo, read-out: Vdss

Ki (Glucagon receptor): 125 nM
Compound: CC(C)CC(c1ccc(C(=O)NCCC(=O)O)cc1)n1ncc2cc(-c3ccc(C(C)(C)C)cc3)ccc21 (racemic)

Ki (Glucagon receptor): 1250 nM
Compound: CC(C)CC(c1ccc(C(=O)NCCC(=O)O)cc1)n1ncc2cc(-c3ccc(N4CCN(C)CC4)cc3)ccc21 (racemic)

Ki (Glucagon receptor): 3000 nM
Compound: CC(C)CC(c1ccc(C(=O)NCCC(=O)O)cc1)n1ncc2cc(-c3ccc(N4CCOCC4)cc3)ccc21 (racemic)

Ki (Glucagon receptor): 285 to 650 nM
Compound: CC(C)CC(c1ccc(C(=O)NCCC(=O)O)cc1)n1ncc2cc(-c3ccc(OC(F)(F)F)cc3)ccc21 (racemic)

Ki (Glucagon receptor): 1650 nM
Compound: CC(C)CC(c1ccc(C(=O)NCCC(=O)O)cc1)n1ncc2cc(-c3cc(Cl)cc(Cl)c3)ccc21 (racemic)

Ki (Glucagon receptor): 260 nM
Compound: CC(C)CC(c1ccc(C(=O)NCCC(=O)O)cc1)n1ncc2cc(-c3ccc(C(F)(F)F)cc3)ccc21 (racemic)

Further lines, the molecule ahead of its results:

Compound: Cc1cc(C(F)(F)F)ccc1-c1cc2cnn(C(CC(C)C)c3ccc(C(=O)NCCC(=O)O)nc3)c2cc1C (racemic)
Cmax [1]: 11.1 µM
bioavailability [2]: 94.7%
half-life [3]: 5 h
half-life [4]: 4.8 h
AUC(0-t) [5]: 111 µM·h
clearance [6]: 4.83 mL/min/kg
Vd [7]: 1.85 L/kg

Compound: CC(C)CC(c1ccc(C(=O)NCCC(=O)O)cc1)n1ccc2cc(-c3ccc(C(F)(F)F)cc3)ccc21 (racemic)
half-life [8]: 4.6 h
Cmax [1]: 8.1 µM
bioavailability [2]: 68.7%
Ki (Glucagon receptor): 115 nM
half-life [3]: 3.7 h
AUC(0-t) [9]: 14.3 µM·h
bioavailability [10]: 51.7%
half-life [11]: 5.2 h
Cmax [12]: 1.4 µM
half-life [4]: 3.9 h
AUC(0-t) [5]: 116 µM·h
clearance [13]: 12.2 mL/min/kg
Vd [14]: 3.65 L/kg
clearance [6]: 3.77 mL/min/kg
Vd [7]: 1.05 L/kg

Compound: Cc1c(-c2ccc(C(F)(F)F)cc2Cl)ccc2nn(C(CC(C)C)c3ccc(C(=O)NCCC(=O)O)cc3)cc12 (racemic)
Ki (Glucagon receptor): 29 nM

Compound: Cc1cc(C(F)(F)F)ccc1-c1ccc2c(ccn2C(CC(C)C)c2ccc(C(=O)NCCC(=O)O)cc2)c1 (racemic)
Ki (Glucagon receptor): 85 nM

Compound: Cc1cc(-c2ccc(C(C)(C)C)cc2)cc2cn(C(CC(C)C)c3ccc(C(=O)NCCC(=O)O)cc3)nc12 (racemic)
Ki (Glucagon receptor): 1340 nM

Compound: Cc1cc(-c2ccc(C(C)(C)C)cc2)cc2ccn(C(CC(C)C)c3ccc(C(=O)NCCC(=O)O)nc3)c12 (racemic)
Ki (Glucagon receptor): > 2600 nM

Compound: CC(C)CC(c1ccc(C(=O)NCCC(=O)O)cc1)n1ccc2cc(-c3ccc(C(C)(C)C)cc3)ccc21 (racemic)
Ki (Glucagon receptor): 110 nM

Compound: Cc1cc(C(F)(F)F)ccc1-c1ccc2nn(C(CC(C)C)c3ccc(C(=O)NCCC(=O)O)cc3)cc2c1Cl (racemic)
Cmax [1]: 18.5 µM
bioavailability [2]: 97.7%
Ki (Glucagon receptor): 19 nM
half-life [3]: 6.6 h
AUC(0-t) [5]: 290 µM·h
clearance [6]: 1.89 mL/min/kg
Vd [7]: 0.9 L/kg

Compound: Cc1cc(C(F)(F)F)ccc1-c1cc(F)c2c(ccn2C(CC(C)C)c2ccc(C(=O)NCCC(=O)O)cc2)c1C (racemic)
Ki (Glucagon receptor): 700 nM
